Assay results: PubChem BioAssay AID330 (DTP/NCI, 2004)
Several values for one entry are separate records, joined by “and”; a condition that tells them apart may be missing. Equal values may be shown once. Toxic doses and inconclusive results are not listed. Rule for the calls: active = survival T/C of 150% or more; inactive = T/C below 125% in these data.

Test system: P388 leukemia ip, CD2F1 mice, survival T/C
Assay: NCI In Vivo Anticancer Drug Screen. Data for tumor model P388 Leukemia (intraperitoneal) in CD2F1 (CDF1) mice
Conditions: endpoint: median survival time, higher = longer survival
In short: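 Mice carrying the transplanted tumor received test compound or vehicle. Survival was recorded in each group, and the value is the treated-group measurement divided by that of the vehicle-treated control group.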

[1] = dose: 25.0 mg/kg/injection, schedule: Q01DX009 (ip), vehicle: saline with Tween-80
[2] = dose: 50.0 mg/kg/injection, schedule: Q01DX009 (ip), vehicle: saline with Tween-80
[3] = dose: 100.0 mg/kg/injection, schedule: Q01DX009 (ip), vehicle: saline with Tween-80
[4] = dose: 200.0 mg/kg/injection, schedule: Q01DX009 (ip), vehicle: saline with Tween-80
[5] = dose: 50.0 mg/kg/injection, schedule: Q01DX009 (ip), vehicle: other
[6] = dose: 50.0 mg/kg/injection, schedule: Q01DX009 (ip), vehicle: saline
[7] = dose: 100.0 mg/kg/injection, schedule: Q01DX009 (ip), vehicle: saline
[8] = dose: 200.0 mg/kg/injection, schedule: Q01DX009 (ip), vehicle: saline
[9] = dose: 50.0 mg/kg/injection, schedule: Q01DX005 (ip), vehicle: saline with Tween-80
[10] = dose: 100.0 mg/kg/injection, schedule: Q01DX005 (ip), vehicle: saline with Tween-80
[11] = dose: 200.0 mg/kg/injection, schedule: Q01DX005 (ip), vehicle: saline with Tween-80
[12] = dose: 50.0 mg/kg/injection, schedule: Q01DX005 (ip), vehicle: Klucel (hydroxypropylcellulose) (HPC)
[13] = dose: 100.0 mg/kg/injection, schedule: Q01DX005 (ip), vehicle: Klucel (hydroxypropylcellulose) (HPC)
[14] = dose: 60.0 mg/kg/injection, schedule: Q01DX005 (ip), vehicle: saline with Tween-80
[15] = dose: 120.0 mg/kg/injection, schedule: Q01DX005 (ip), vehicle: saline with Tween-80
[16] = dose: 100.0 mg/kg/injection, schedule: Q01DX001 (ip), vehicle: saline
[17] = dose: 200.0 mg/kg/injection, schedule: Q01DX001 (ip), vehicle: saline
[18] = dose: 200.0 mg/kg/injection, schedule: Q01DX005 (ip), vehicle: Klucel (hydroxypropylcellulose) (HPC)
[19] = dose: 60.0 mg/kg/injection, schedule: Q01DX005 (ip), vehicle: Klucel (hydroxypropylcellulose) (HPC)
[20] = dose: 120.0 mg/kg/injection, schedule: Q01DX005 (ip), vehicle: Klucel (hydroxypropylcellulose) (HPC)
[21] = dose: 60.0 mg/kg/injection, schedule: Q01DX005 (ip), vehicle: saline
[22] = dose: 120.0 mg/kg/injection, schedule: Q01DX005 (ip), vehicle: saline
[23] = dose: 240.0 mg/kg/injection, schedule: Q01DX005 (ip), vehicle: saline

Measured: T/C

CCCCCCCCCCCCCCCC(=O)N(CCCCN(C(=O)CCCCCCCCCCCCCCC)C(C)CCCN(CC)CC)C(C)CCCN(CC)CC (stereo unspecified)
inactive: dose: 25.0 mg/kg/injection, schedule: Q01DX009 (ip), vehicle: other 93 % of control | [5] 93 % of control

CCC1(CC)COC(C)(C(=O)O)OC1
inactive: [1] 102 % of control | [2] 102 % of control | [3] 94 % of control | [4] 96 % of control

O=C(O)CNc1ccccc1.[Cu+2]
inactive: dose: 6.25 mg/kg/injection, schedule: Q01DX001 (ip), vehicle: Klucel (hydroxypropylcellulose) (HPC) 98 % of control | dose: 12.5 mg/kg/injection, schedule: Q01DX001 (ip), vehicle: Klucel (hydroxypropylcellulose) (HPC) 98 % of control | dose: 25.0 mg/kg/injection, schedule: Q01DX001 (ip), vehicle: Klucel (hydroxypropylcellulose) (HPC) 101 % of control and 112 % of control

CC([OH2+])CNCCN.CC([OH2+])CNCCN.O=[N+]([O-])[O-].[Cu+2] (stereo unspecified)
inactive: [6] 113 % of control

O=P(O)(O)OC1C(OP(=O)(O)O)C(OP(=O)(O)O)C(OP(=O)(O)O)C(OP(=O)(O)O)C1OP(=O)(O)O (stereo unspecified)
inactive: [6] 94 % of control | [7] 94 % of control | [8] 102 % of control

Cc1nnc(-n2nc(-c3ccc(Cl)cc3)cc2N)[nH]c1=O
inactive: [9] 98 % of control | [10] 106 % of control | [11] 93 % of control

c1ccc(OP2(Oc3ccccc3)=NP(Oc3ccccc3)(Oc3ccccc3)=NP(Oc3ccccc3)(Oc3ccccc3)=NP(Oc3ccccc3)(Oc3ccccc3)=N2)cc1
inactive: [12] 97 % of control | [13] 91 % of control

Cc1ccc(/C=C/C(=N/Nc2ccccc2)C(C)CN(C)C)cc1 (stereo unspecified)
inactive: [14] 100 % of control | [15] 89 % of control

CCOc1cc2c(cc1Cc1ccc3c(c1)OCO3)OCO2
inactive: [9] 97 % of control | [10] 107 % of control | [11] 107 % of control

Cc1ccc(S(=O)(=O)c2cnc(N)nc2N)cc1
inactive: [16] 98 % of control | [17] 95 % of control | dose: 400.0 mg/kg/injection, schedule: Q01DX001 (ip), vehicle: saline 95 % of control

COc1ccc(N(C)C(=O)/C=C/N2CCCCC2)cc1
inactive: dose: 12.5 mg/kg/injection, schedule: Q01DX005 (ip), vehicle: Klucel (hydroxypropylcellulose) (HPC) 107 % of control | dose: 25.0 mg/kg/injection, schedule: Q01DX005 (ip), vehicle: Klucel (hydroxypropylcellulose) (HPC) 98 % of control | [12] 114 % of control and 98 % of control | [13] 124 % of control and 96 % of control | [18] 109 % of control

CC(C)(C)c1cc(NC(=O)C(F)(F)F)c(Cl)c(C(C)(C)C)c1O
inactive: [12] 109 % of control | [13] 100 % of control | [18] 108 % of control

NC(N)=N/N=C1C=C/C(=N/N=C(N)N)C/1
inactive: dose: 25.0 mg/kg/injection, schedule: Q01DX001 (ip), vehicle: saline 104 % of control | dose: 50.0 mg/kg/injection, schedule: Q01DX001 (ip), vehicle: saline 100 % of control | [16] 107 % of control | [17] 94 % of control

CC1(C)C(C(=O)/C=C2\Nc3ccccc3C2(C)C)=Nc2ccccc21
inactive: [19] 102 % of control | [20] 91 % of control | dose: 240.0 mg/kg/injection, schedule: Q01DX005 (ip), vehicle: Klucel (hydroxypropylcellulose) (HPC) 98 % of control

O=c1c2ccccc2sc2c([N+](=O)[O-])ccc(NCCCC3CCCN4CCCCC34)c12 (stereo unspecified)
inactive: dose: 31.9 mg/kg/injection, schedule: Q01DX005 (ip), vehicle: saline with Tween-80 100 % of control | dose: 63.8 mg/kg/injection, schedule: Q01DX005 (ip), vehicle: saline with Tween-80 102 % of control | dose: 127.5 mg/kg/injection, schedule: Q01DX005 (ip), vehicle: saline with Tween-80 110 % of control

Cc1ccc(S(=O)(=O)C2(NC(=O)C3CC3)CC2)cc1
inactive: [19] 89 % of control | [20] 89 % of control

CCCN1CC=CCC1
inactive: [21] 100 % of control | [22] 100 % of control | [23] 100 % of control

Cc1cccc(NC(=O)c2ccccc2)n1
inactive: dose: 12.5 mg/kg/injection, schedule: Q04DX003 (ip), vehicle: saline 104 % of control | dose: 25.0 mg/kg/injection, schedule: Q04DX003 (ip), vehicle: saline 100 % of control | dose: 50.0 mg/kg/injection, schedule: Q04DX003 (ip), vehicle: saline 90 % of control

CN(C)CC#CC1(O)c2ccccc2CCc2ccccc21
inactive: [6] 91 % of control | [7] 91 % of control | [8] 91 % of control

CN1c2ccc(Br)c[c]2[Sn]([CH3])([CH3])[c]2cc(Br)ccc21
inactive: [14] 99 % of control | [15] 100 % of control | dose: 240.0 mg/kg/injection, schedule: Q01DX005 (ip), vehicle: saline with Tween-80 104 % of control

OC1CCCCCC2CC12 (stereo unspecified) (tested in a mixture with another compound)
inactive: [5] 102 % of control | dose: 100.0 mg/kg/injection, schedule: Q01DX009 (ip), vehicle: other 103 % of control | dose: 200.0 mg/kg/injection, schedule: Q01DX009 (ip), vehicle: other 96 % of control

CC(C)C(NC(=O)OCc1ccccc1)C(=O)NC(Cc1c[nH]c2ccccc12)C(=O)O (stereo unspecified)
inactive: [9] 99 % of control | [10] 99 % of control | [11] 95 % of control

CC1(C)CC(OS(C)(=O)=O)CC(C)(C)N1O
inactive: dose: 50.0 mg/kg/injection, schedule: Q01DX009 (ip), vehicle: Klucel (hydroxypropylcellulose) (HPC) 100 % of control | dose: 100.0 mg/kg/injection, schedule: Q01DX009 (ip), vehicle: Klucel (hydroxypropylcellulose) (HPC) 99 % of control

CONCc1ccc(C(=O)NC(C)C)cc1
inactive: dose: 25.0 mg/kg/injection, schedule: Q01DX009 (ip), vehicle: distilled water + Tween-80 105 % of control | dose: 50.0 mg/kg/injection, schedule: Q01DX009 (ip), vehicle: distilled water + Tween-80 106 % of control | dose: 100.0 mg/kg/injection, schedule: Q01DX009 (ip), vehicle: distilled water + Tween-80 90 % of control | dose: 200.0 mg/kg/injection, schedule: Q01DX009 (ip), vehicle: distilled water + Tween-80 90 % of control

COC(c1ccccc1)C1(O)CCN(C)CC1 (stereo unspecified)
inactive: dose: 72.0 mg/kg/injection, schedule: Q04DX002 (ip), vehicle: Klucel (hydroxypropylcellulose) (HPC) 98 % of control | dose: 144.0 mg/kg/injection, schedule: Q04DX002 (ip), vehicle: Klucel (hydroxypropylcellulose) (HPC) 97 % of control | dose: 288.0 mg/kg/injection, schedule: Q04DX002 (ip), vehicle: Klucel (hydroxypropylcellulose) (HPC) 98 % of control

CC1=C(C)SC(=S)NN1
inactive: dose: 3.12 mg/kg/injection, schedule: Q01DX009 (ip), vehicle: saline 96 % of control | dose: 6.25 mg/kg/injection, schedule: Q01DX009 (ip), vehicle: saline 100 % of control | dose: 12.5 mg/kg/injection, schedule: Q01DX009 (ip), vehicle: saline 100 % of control

O=C1c2ccccc2COC1c1ccccc1 (stereo unspecified)
inactive: [6] 108 % of control | [7] 111 % of control | [8] 118 % of control

CC(=O)NC(C)C(C)(C)O (stereo unspecified)
inactive: [6] 96 % of control | [7] 118 % of control | [8] 105 % of control | dose: 400.0 mg/kg/injection, schedule: Q01DX009 (ip), vehicle: saline 105 % of control

CN(C)CCNc1cccc2sc3ccc(O)cc3c(=O)c12
inactive: dose: 12.5 mg/kg/injection, schedule: Q01DX005 (ip), vehicle: saline with Tween-80 113 % of control | dose: 25.0 mg/kg/injection, schedule: Q01DX005 (ip), vehicle: saline with Tween-80 115 % of control and 123 % of control | [9] 123 % of control and 124 % of control

O=C(O)Cc1c(-c2ccccc2)n[nH]c1-c1[nH]nc(-c2ccccc2)c1CC(=O)O
inactive: [21] 95 % of control | [22] 95 % of control | [23] 104 % of control

COc1cc2c(cc1OCc1ccccc1)C(Cc1cc(Br)sc1Br)=NCC2
inactive: [12] 88 % of control | [13] 90 % of control | [18] 92 % of control
